Literature values as cited in patent US20080132413A1, “Methods for the Improvement of Plant Tolerance Towards Glyphosate” (Bayer Cropscience AG, priority 2004, published 2008).

Test system: glyphosate-resistant cotton (Roundup Ready Cotton)

SMILES: O=[N+]([O-])/N=C1\NCCN1Cc1ccc(Cl)nc1 [imidacloprid]
- increase in buds compared to a control not treated with imidacloprid (glyphosate treatment at the 4 leaf stage, after 45 days): 18%
- sum of the counts of buds and bolls versus untreated control (glyphosate treatment at the 4 leaf stage, after 62 days): matched that of the untreated control
- minus of buds compared to the control not treated with imidacloprid (glyphosate treatment at the 6 leaf stage, after 40 days): 14%
- sum of the counts of buds and bolls (yield) greater than that of the untreated control (glyphosate treatment at the 6 leaf stage, after 57 days): about 14%
